Experimental data: PMC10141604, “Small-Molecule Inhibition of Androgen Receptor Dimerization as a Strategy against Prostate Cancer” (ACS Central Science, 2023)

Columns and labels:
[1] = system: subcutaneous xenografts of LNCaP cells; test: LNCaP mouse xenograft study, intratumor injection; format: in vivo; details: 2.5 mg/kg/week; for tumor growth inhibition (TGI): LNCaP xenograft in CB17 SCID mice; for tumor volume and weight: versus vehicle
Protocol: The animal protocols were in accordance with the guidelines of the Animal Welfare Council of China, and were performed by KCBIO company (Chengdu, China). All animal use and studies were performed in compliance with all relevant ethical regulations, and were approved by the Institutional Animal Care and Use Committee (IACUC) at Kangcheng Biotechnology Co., Ltd, Sichuan, China (IACUC-202010-m-001). In brief, male CB17 SCID mice (6-8 weeks old) were housed at a constant room temperature and fed a standard rodent diet and allowed free access to water. LNCaP cells (1 × 107) suspended in 0.1 ml PBS were injected subcutaneously into the right flank of eac h CB17 SCID mice. Once tumor size reached an average tumor volume of 110 mm 3, the mice were randomized into three groups with 6 mice per group, and then intratumor injection […]
The tumor volumes were estimated by measuring length (L) and width (W) and […]
calculating volume (V= 0.5 × L × W2). Finally, the mice were sacrificed and the tumors were harvested for hematoxylin and eosin (H&E) staining. […]
Addgene), 24 ng pGL4.36[luc2P MMTV Hygro] […]
For the antagonistic models, 10 nM /well progesterone for PC3 cells , 1 nM/well dexamethasone for HeLa, and 5 nM/well aldosterone for HEK293T cells were added to stimulate the cells. Meanwhile, each cell line was treated with a series concentration of compounds (0.4, 2, and 10 μM). For the agonistic models, the cells were directly treated with the compounds without any hormones. […]
Luciferase system (#E1910, Promega).
Cell Cycle and Apoptosis for LNCaP cells […]
48 h incubation by Cell Cycle Staining Kit (#CCS012, MULTI SCIENCES) using […]

[2] = target: T1, MR (Homo sapiens, UniProt P08235); test: Luciferase reporter assay for MR (HEK293T cells); format: cell-based; details: 10 μM, 5 nM aldosterone
T1 construct: host or cells: HEK293T
T1 sequence (P08235 1-984): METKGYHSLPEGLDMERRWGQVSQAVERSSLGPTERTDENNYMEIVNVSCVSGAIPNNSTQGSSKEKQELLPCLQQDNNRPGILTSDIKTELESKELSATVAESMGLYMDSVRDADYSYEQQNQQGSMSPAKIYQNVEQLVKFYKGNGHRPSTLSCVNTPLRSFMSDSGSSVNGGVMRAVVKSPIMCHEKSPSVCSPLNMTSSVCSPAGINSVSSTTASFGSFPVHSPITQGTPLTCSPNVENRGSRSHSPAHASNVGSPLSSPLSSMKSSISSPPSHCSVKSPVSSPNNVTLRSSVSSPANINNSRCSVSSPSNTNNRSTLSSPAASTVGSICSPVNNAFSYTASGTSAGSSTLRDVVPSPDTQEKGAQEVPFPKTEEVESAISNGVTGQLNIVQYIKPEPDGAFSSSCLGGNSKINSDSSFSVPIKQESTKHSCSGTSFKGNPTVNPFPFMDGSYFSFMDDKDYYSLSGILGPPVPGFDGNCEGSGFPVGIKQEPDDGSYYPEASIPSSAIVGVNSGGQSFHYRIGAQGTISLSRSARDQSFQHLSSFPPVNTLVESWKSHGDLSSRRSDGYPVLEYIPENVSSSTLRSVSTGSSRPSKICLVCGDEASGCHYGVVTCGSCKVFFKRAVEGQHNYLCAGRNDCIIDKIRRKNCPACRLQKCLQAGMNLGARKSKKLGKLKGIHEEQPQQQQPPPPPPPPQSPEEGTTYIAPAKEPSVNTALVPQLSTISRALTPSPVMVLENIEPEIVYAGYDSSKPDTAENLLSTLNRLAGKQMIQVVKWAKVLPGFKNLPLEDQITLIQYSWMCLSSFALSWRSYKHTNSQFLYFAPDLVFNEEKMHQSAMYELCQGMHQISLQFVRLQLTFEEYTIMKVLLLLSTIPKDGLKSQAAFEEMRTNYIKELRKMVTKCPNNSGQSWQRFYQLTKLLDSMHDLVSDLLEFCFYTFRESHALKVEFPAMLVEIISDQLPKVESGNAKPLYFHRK
Protocol: Luciferase Reporter Assays for PR, GR, and MR
PC3, HeLa, and HEK293T cells were cultured using 5% CSS RPMI-1640, 5% CSS RPMI-1640 and 10% FBS DMEM media in 96-well plates for 24 h, respectively. For PR induction, PC3 (1 × 10^4 cells/well) were transfected with 50 ng pcDNA3-PRB (#89130, Addgene), 24 ng pGL4.36[luc2P MMTV Hygro] (Promega) and 5 ng Renilla using HG-TransGeneTM transfection reagent (#TG-10012, Genomeditech) for 4 h. For GR induction, Hela (1 × 10^4 cells/well) were transfected with 71 ng pCMV -GR11 (#89105, Addgene), 24 ng pGL4.36[luc2P MMTV Hygro] (Promega) and 5 ng Renilla using lip3000 transfection reagent (#L3000075, Thermofisher) for 24 h. For MR induction, HEK293T (1 × 10^4 cells/well) were transfected with 71 ng pCMV-MR gifted by Liu et al. 28, 24 ng of pGL4.36[luc2P MMTV Hygro] (Promega) and 5 ng Renilla using lip3000 transfec tion reagent for 24 h. For the antagonistic models, 10 nM /well progesterone for PC3 cells , 1 nM/well dexamethasone for HeLa, and 5 nM/well aldosterone for HEK293T cells were added to stimulate the cells. Meanwhile, each cell line was treated with a series concentration of compounds (0.4, 2, and 10 μM). For the agonistic models, the cells were directly treated with the compounds without any hormones. Endogenous hormones progesterone, dexamethasone, and aldosterone were considered as agonists for PR, GR, and MR, respectively. The luciferase activities were assessed using the Dual-Glo Luciferase system (#E1910, Promega). […]

[3] = Solubility (statement); format: physicochemical
[4] = system: endogenous PSA and AR in LNCaP cells; test: Western blot of PSA and AR in LNCaP cells; format: cell-based; details: 10 nM DHT, 48 h
Protocol: individually, and all in the presence of 10 nM DHT and incubated for 48 h. Then, the cells were harvested, followed by separating the cell lysate using 10% SDS-PAGE and electro-transfer to a polyvinylidene fluoride (PVDF) membrane (Bio -Rad). Blocking buffer (#P0023B, Beyotime Biotechnology) were used to block the membranes. After 0.5
h incubation at room temperature, each membrane was further incubated with specific
Lamin B1, #AF1408, Beyotime Biotechnology) and then the corresponding secondary antibody (HRP-conjugated Goat Anti-Rabbit IgG, # D110058, Sangon Biotech). The Image J program was performed for quantitative analysis of the immunoreactive bands.

[5] = system: 22RV1; test: MTT cell viability assay, 22RV1; format: cell-based; details: 72 h
Protocol: 3-(4,5-dimethythiazol-2-yl)-2,5-diphenyl-2-H-tetrazolium bromide (MTT) colorimetric assay was employed to investigate cell viability. Cells were seeded into 96-well plates with 2-5× 10^3 cells per well (5× 10^3 cells/well for LNCaP, 22RV1, NIH-3T3, GES-1, Chang, […]
NCI-H1299, U2OS, U87) for 1 day incubation at 37 °C. Then, the cells were treated with various concentrations of compounds (22.86 nM - 50 μM) and incubated for 72 h. Then, 10 μl MTT (5 mg/ml) was added into each well and incubated for 4 h. Afterwards, 100 μl of triplex 10% SDS-0.1% HCl-phosophate-buffered saline (PBS) solutions was added into each well and incubated for overnight. The absorbance at 570 nm was measured (Eon, Bioteck, Winooski, VT). […]

| MR antagonistic activity [2] | solubility [3] | Compound | tumor growth inhibition (TGI) [1] | tumor volume and weight [1] | AR levels (Western blot) ([4]; LNCaP) | endogenous PSA production (Western blot) ([4]; LNCaP, 0.1, 1, 10 μM) | inhibition on the cell viability of 22RV1 [5] |
| --- | --- | --- | --- | --- | --- | --- | --- |
| not observed |  | CNC(=O)c1ccc(N2C(=S)N(c3ccc(C#N)c(C(F)(F)F)c3)C(=O)C2(C)C)cc1F [Enz, enzalutamide, reference compound] | 51.35% | significantly inhibited |  |  |  |
| not observed | poor solubility | CC(=O)Cc1nsc(NC(=O)c2cc(-c3cccc(C(F)(F)F)c3)oc2C)n1 [Compound M17-B15] | 83.59% | significantly inhibited | does not affect | remarkably inhibited | does not show obvious inhibition |
